From patent publication US11331271B2, “Buccal, sublingual and intranasal delivery of fospropofol” (The Johns Hopkins University, priority 2016, dated 2022)

Test system: healthy volunteers
Assay: Human Study 2: treatment-emergent adverse events (TEAE), safety, Modified OAA/S, DSST, BIS
Assay type: in vivo
Details: for DSST mean change from baseline: 1 h post-treatment
Description: In human study 1, fospropofol disodium was formulated as a sterile aqueous solution at a concentration of 20 mg/mL. Each vial provided contained 20 mL of solution, suitable for intravenous injection. Fospropofol was administered as a single dose of 400 mg orally, directly into the duodenum by gastroscopy or intravenously over 10 min. In human study 2, fospropofol disodium in capsules (200 mg) or matching placebo was administered orally.
A second single ascending dose study was subsequently performed to assess the safety, tolerability, and pharmacokinetics of oral administration of fospropofol as a capsule. This was a double-blind, randomized, crossover, placebo-controlled, single ascending dose study. Ten healthy volunteers were enrolled, 6 males and 4 females between 18 and 45 years of age inclusive with a body mass index between 18 and 28 kg/m^2. Each subject received four ascending oral doses of fospropofol disodium (200, 600, 1,000 and 1,200 mg) and one of placebo. Placebo was administered randomly, in one of the five periods. Subjects stayed in the clinical research unit over 3 days per treatment for five consecutive treatments. Between treatments, there were wash-out periods of at least 6 days, during which interim safety evaluations were made to assess the safety of the subsequent higher doses. Fopropofol disodium in capsules (200 mg) or matching placebo was administered orally. Pharmacokinetic parameters, safety and pharmacodynamic effect were assessed in a manner similar to that in Study 1 described above. In addition, the digit symbol substitution test (DSST) and BIS Index (a commercially available EEG derived measure of anesthesia and sedation, Coviden, Mansfield, Mass., USA) were added as additional pharmacodynamics measures.

[1] = 200 mg oral, listed as Fospropofol
[2] = 600 mg oral, listed as Fospropofol
[3] = 1000 mg oral, listed as Fospropofol
[4] = 1200 mg oral, listed as Fospropofol

CC(C)c1cccc(C(C)C)c1OCOP(=O)(O)O [fospropofol]
BIS score range (200 mg): 80-98%
TEAE EYE DISORDERS, subjects (%) (200 mg oral): (10%)
TEAE GASTROINTESTINAL DISORDERS, events (E) (200 mg oral): 2
TEAE GASTROINTESTINAL DISORDERS, subjects (%) (200 mg oral): (10%)
TEAE GENERAL DISORDERS AND ADMINISTRATION SITE CONDITIONS, subjects (%) (200 mg oral): (10%)
TEAE INFECTIONS AND INFESTATIONS, subjects (%) (200 mg oral): (10%)
TEAE MUSCULOSKELETAL AND CONNECTIVE DISORDERS, subjects (%) (200 mg oral): (10%)
TEAE NERVOUS SYSTEM DISORDERS, events (E) (200 mg oral): 10
TEAE NERVOUS SYSTEM DISORDERS, subjects (%) (200 mg oral): (70%)
TEAE RESPIRATORY THORACIC AND MEDIASTINAL DISORDERS, subjects (%) (200 mg oral): (10%)
TEAE TOTAL, events (E) (200 mg oral): 18
TEAE TOTAL, subjects (%) (200 mg oral): 80%
TEAE VASCULAR DISORDERS, subjects (%) (200 mg oral): (10%)
TEAE abdominal pain, subjects (%) (200 mg oral): (10%)
TEAE eye irritation, subjects (%) (200 mg oral): (10%)
TEAE feeling hot, subjects (%) (200 mg oral): (10%)
TEAE nausea, subjects (%) (200 mg oral): (10%)
TEAE paraesthesia oral, subjects (%) (200 mg oral): (30%)
TEAE paraesthesia, events (E) (200 mg oral): 3
TEAE paraesthesia, subjects (%) (200 mg oral): (20%)
TEAE pharyngolaryngeal pain, subjects (%) (200 mg oral): (10%)
TEAE rhinitis, subjects (%) (200 mg oral): (10%)
TEAE sensation of heaviness, subjects (%) (200 mg oral): (10%)
TEAE somnolence, subjects (%) (200 mg oral): 40%
TEAE vein pain, subjects (%) (200 mg oral): (10%)
TEAE TOTAL, subjects (%) [1]: (80%)
TEAE somnolence, subjects (%) [1]: (10%)
DSST mean change from baseline (200 mg): 6
BIS score range (600 mg): 71-98%
TEAE GASTROINTESTINAL DISORDERS, events (E) (600 mg oral): 4
TEAE GASTROINTESTINAL DISORDERS, subjects (%) (600 mg oral): (30%)
TEAE GENERAL DISORDERS AND ADMINISTRATION SITE CONDITIONS, events (E) (600 mg oral): 5
TEAE GENERAL DISORDERS AND ADMINISTRATION SITE CONDITIONS, subjects (%) (600 mg oral): (40%)
TEAE NERVOUS SYSTEM DISORDERS, events (E) (600 mg oral): 16
TEAE NERVOUS SYSTEM DISORDERS, subjects (%) (600 mg oral): (70%)
TEAE PSYCHIATRIC DISORDERS, subjects (%) (600 mg oral): (10%)
TEAE REPRODUCTIVE SYSTEM AND BREAST DISORDERS, subjects (%) (600 mg oral): (10%)
TEAE RESPIRATORY THORACIC AND MEDIASTINAL DISORDERS, subjects (%) (600 mg oral): (10%)
TEAE TOTAL, events (E) (600 mg oral): 29
TEAE TOTAL, subjects (%) (600 mg oral): 90%
TEAE VASCULAR DISORDERS, subjects (%) (600 mg oral): (10%)
TEAE abdominal pain, subjects (%) (600 mg oral): (10%)
TEAE bowel sounds abnormal, subjects (%) (600 mg oral): (10%)
TEAE dizziness, subjects (%) (600 mg oral): (20%)
TEAE dysgeusia, subjects (%) (600 mg oral): (10%)
TEAE euphoric mood, subjects (%) (600 mg oral): (10%)
TEAE fatigue, subjects (%) (600 mg oral): (20%)
TEAE feeling hot, subjects (%) (600 mg oral): (30%)
TEAE headache, events (E) (600 mg oral): 3
TEAE headache, subjects (%) (600 mg oral): (20%)
TEAE nausea, subjects (%) (600 mg oral): (10%)
TEAE paraesthesia, subjects (%) (600 mg oral): (50%)
TEAE perineal pain, subjects (%) (600 mg oral): (10%)
TEAE pharyngolaryngeal pain, subjects (%) (600 mg oral): (10%)
TEAE phlebitis superficial, subjects (%) (600 mg oral): (10%)
TEAE proctalgia, subjects (%) (600 mg oral): (10%)
TEAE somnolence, subjects (%) (600 mg oral): 50%
TEAE TOTAL, subjects (%) [2]: (90%)
TEAE somnolence, subjects (%) [2]: (50%)
DSST mean change from baseline (600 mg): −5
BIS score range (1,000 mg): 70-98%
TEAE CARDIAC DISORDERS, subjects (%) (1000 mg oral): (10%)
TEAE GASTROINTESTINAL DISORDERS, subjects (%) (1000 mg oral): (40%)
TEAE GENERAL DISORDERS AND ADMINISTRATION SITE CONDITIONS, subjects (%) (1000 mg oral): (30%)
TEAE NERVOUS SYSTEM DISORDERS, events (E) (1000 mg oral): 14
TEAE NERVOUS SYSTEM DISORDERS, subjects (%) (1000 mg oral): (70%)
TEAE REPRODUCTIVE SYSTEM AND BREAST DISORDERS, subjects (%) (1000 mg oral): (10%)
TEAE RESPIRATORY THORACIC AND MEDIASTINAL DISORDERS, subjects (%) (1000 mg oral): (10%)
TEAE TOTAL, events (E) (1000 mg oral): 28
TEAE TOTAL, subjects (%) (1000 mg oral): 80%
TEAE VASCULAR DISORDERS, events (E) (1000 mg oral): 4
TEAE VASCULAR DISORDERS, subjects (%) (1000 mg oral): (30%)
TEAE dysphagia, subjects (%) (1000 mg oral): (10%)
TEAE fatigue, subjects (%) (1000 mg oral): (10%)
TEAE feeling hot, subjects (%) (1000 mg oral): (20%)
TEAE headache, subjects (%) (1000 mg oral): (20%)
TEAE nausea, subjects (%) (1000 mg oral): (30%)
TEAE palpitations, subjects (%) (1000 mg oral): (10%)
TEAE paraesthesia oral, subjects (%) (1000 mg oral): (10%)
TEAE paraesthesia, events (E) (1000 mg oral): 7
TEAE paraesthesia, subjects (%) (1000 mg oral): (60%)
TEAE perineal pain, subjects (%) (1000 mg oral): (10%)
TEAE phlebitis superficial, events (E) (1000 mg oral): 4
TEAE phlebitis superficial, subjects (%) (1000 mg oral): (30%)
TEAE somnolence, subjects (%) (1000 mg oral): 40%
TEAE throat irritation, subjects (%) (1000 mg oral): (10%)
subjects with somnolence considered severe (1000 mg oral): 1
TEAE TOTAL, subjects (%) [3]: (80%)
TEAE somnolence, subjects (%) [3]: (40%)
DSST mean change from baseline (1,000 mg): −11
lowest Modified OAA/S score (1,000 mg, Subject 003, 1 and 1.5 h after treatment): 3
BIS score range (1,200 mg): 70-98%
TEAE GASTROINTESTINAL DISORDERS, subjects (%) (1200 mg oral): (30%)
TEAE GENERAL DISORDERS AND ADMINISTRATION SITE CONDITIONS, events (E) (1200 mg oral): 6
TEAE GENERAL DISORDERS AND ADMINISTRATION SITE CONDITIONS, subjects (%) (1200 mg oral): (30%)
TEAE INFECTIONS AND INFESTATIONS, subjects (%) (1200 mg oral): (14%)
TEAE NERVOUS SYSTEM DISORDERS, events (E) (1200 mg oral): 13
TEAE NERVOUS SYSTEM DISORDERS, subjects (%) (1200 mg oral): (90%)
TEAE PSYCHIATRIC DISORDERS, subjects (%) (1200 mg oral): (10%)
TEAE REPRODUCTIVE SYSTEM AND BREAST DISORDERS, subjects (%) (1200 mg oral): (10%)
TEAE RESPIRATORY THORACIC AND MEDIASTINAL DISORDERS, subjects (%) (1200 mg oral): (10%)
TEAE TOTAL, events (E) (1200 mg oral): 26
TEAE TOTAL, subjects (%) (1200 mg oral): 90%
TEAE VASCULAR DISORDERS, subjects (%) (1200 mg oral): (10%)
TEAE defecation urgency, subjects (%) (1200 mg oral): (10%)
TEAE dyspnoea, subjects (%) (1200 mg oral): (10%)
TEAE euphoric mood, subjects (%) (1200 mg oral): (10%)
TEAE fatigue, subjects (%) (1200 mg oral): (10%)
TEAE feeling hot, events (E) (1200 mg oral): 4
TEAE feeling hot, subjects (%) (1200 mg oral): (30%)
TEAE headache, subjects (%) (1200 mg oral): (10%)
TEAE nausea, subjects (%) (1200 mg oral): (20%)
TEAE paraesthesia oral, subjects (%) (1200 mg oral): (10%)
TEAE paraesthesia, subjects (%) (1200 mg oral): (30%)
TEAE perineal pain, subjects (%) (1200 mg oral): (10%)
TEAE somnolence, subjects (%) (1200 mg oral): 80%
TEAE vein pain, subjects (%) (1200 mg oral): (10%)
subjects with somnolence considered severe (1200 mg oral): 1
TEAE TOTAL, subjects (%) [4]: (90%)
TEAE somnolence, subjects (%) [4]: (80%)
subjects with Modified OAA/S score of 4 (1,200 mg, 1.5-h time point): 40%
DSST mean change from baseline (1,200 mg): −13
laboratory values, vital signs, ECGs, physical examinations (200-1,200 mg oral): no changes
serious adverse events (200-1,200 mg oral): No subject experienced a SAE
severity of most TEAEs (Study 2): mild or moderate
nausea, rate of occurrence (Study 2, all treatments): 50%
paresthesia, rate of occurrence (Study 2, all treatments): 60%
phlebitis superficial, rate of occurrence (Study 2, all treatments): 50%
mean BIS scores (all time points, all treatments): > 90%
subjects with Modified OAA/S score of 5 (at most time points, each treatment group): ≥ 80%
